Assay results as given in the supplement of paper PMC10307832.

Legend:
Test in all cases: relative viability (nuclei count vs DMSO), 5 days (fraction); higher = more cells survive
201T = tested on: 201T
In short: (§1)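 Relative viability equals treated-well nuclei counts divided by vehicle-well nuclei counts. Counts came from 4× images of lung cancer cell lines grown in 1536-well plates for 5 days after pin-tool dosing on the day after seeding. Dosing used one drug alone or a fixed anchor-drug dose plus five library-drug doses (not always all listed) in √10 steps, and values are medians of duplicate plates.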

BEN = tested on: BEN
In short: as §1

COR-L 105 = tested on: COR-L 105
In short: as §1

EKVX = tested on: EKVX
In short: as §1

EPLC-272H = tested on: EPLC-272H
In short: as §1

H3255 = tested on: H3255
In short: as §1

HCC-44 = tested on: HCC-44
In short: as §1

HCC-827 = tested on: HCC-827
In short: as §1

HOP-62 = tested on: HOP-62
In short: as §1

LCLC-97TM1 = tested on: LCLC-97TM1
In short: as §1

LOU-NH91 = tested on: LOU-NH91
In short: as §1

LU99A = tested on: LU99A
In short: as §1

NCI-H1395 = tested on: NCI-H1395
In short: as §1

NCI-H1437 = tested on: NCI-H1437
In short: as §1

NCI-H1666 = tested on: NCI-H1666
In short: as §1

NCI-H1975 = tested on: NCI-H1975
In short: as §1

NCI-H2085 = tested on: NCI-H2085
In short: as §1

NCI-H2087 = tested on: NCI-H2087
In short: as §1

NCI-H2126 = tested on: NCI-H2126
In short: as §1

NCI-H358 = tested on: NCI-H358
In short: as §1

NCI-H647 = tested on: NCI-H647
In short: as §1

PC-3 [JPC-3] = tested on: PC-3 [JPC-3]
In short: as §1

SW 1573 = tested on: SW 1573
In short: as §1

## Clc1ccc(Nc2nnc(Cc3ccncc3)c3ccccc23)cc1 [Vatalanib] + CS(=O)(=O)N1CCN(Cc2cc3nc(-c4cccc5[nH]ncc45)nc(N4CCOCC4)c3s2)CC1 [Pictilisib] (partner 1 µM)
201T; first compound 0.04 µM
  relative viability: 0.694
201T; first compound 0.1265 µM
  relative viability: 0.667
201T; first compound 0.4 µM
  relative viability: 0.706
201T; first compound 1.265 µM
  relative viability: 0.663
201T; first compound 4 µM
  relative viability: 0.722
BEN; first compound 0.04 µM
  relative viability: 0.552
BEN; first compound 0.1265 µM
  relative viability: 0.495
BEN; first compound 0.4 µM
  relative viability: 0.529
BEN; first compound 1.265 µM
  relative viability: 0.555
BEN; first compound 4 µM
  relative viability: 0.65
COR-L 105; first compound 0.04 µM
  relative viability: 0.361
COR-L 105; first compound 0.1265 µM
  relative viability: 0.4
COR-L 105; first compound 0.4 µM
  relative viability: 0.276
COR-L 105; first compound 1.265 µM
  relative viability: 0.359
COR-L 105; first compound 4 µM
  relative viability: 0.377
EKVX; first compound 0.04 µM
  relative viability: 0.39
EKVX; first compound 0.1265 µM
  relative viability: 0.463
EKVX; first compound 0.4 µM
  relative viability: 0.391
EKVX; first compound 1.265 µM
  relative viability: 0.344
EKVX; first compound 4 µM
  relative viability: 0.396
EPLC-272H; first compound 0.04 µM
  relative viability: 0.35
EPLC-272H; first compound 0.1265 µM
  relative viability: 0.309
EPLC-272H; first compound 0.4 µM
  relative viability: 0.151
EPLC-272H; first compound 1.265 µM
  relative viability: 0.332
EPLC-272H; first compound 4 µM
  relative viability: 0.344
H3255; first compound 0.04 µM
  relative viability: 0.43
H3255; first compound 0.1265 µM
  relative viability: 0.52
H3255; first compound 0.4 µM
  relative viability: 0.311
H3255; first compound 1.265 µM
  relative viability: 0.384
H3255; first compound 4 µM
  relative viability: 0.438
HCC-44; first compound 0.04 µM
  relative viability: 0.704
HCC-44; first compound 0.1265 µM
  relative viability: 0.684
HCC-44; first compound 0.4 µM
  relative viability: 0.63
HCC-44; first compound 1.265 µM
  relative viability: 0.644
HCC-44; first compound 4 µM
  relative viability: 0.613
HCC-827; first compound 0.04 µM
  relative viability: 0.974
HCC-827; first compound 0.1265 µM
  relative viability: 0.872
HCC-827; first compound 0.4 µM
  relative viability: 0.925
HCC-827; first compound 1.265 µM
  relative viability: 1.06
HCC-827; first compound 4 µM
  relative viability: 0.863
HOP-62; first compound 0.04 µM
  relative viability: 0.758
HOP-62; first compound 0.4 µM
  relative viability: 0.632
HOP-62; first compound 1.265 µM
  relative viability: 0.702
HOP-62; first compound 4 µM
  relative viability: 0.713
LCLC-97TM1; first compound 0.04 µM
  relative viability: 0.136
LCLC-97TM1; first compound 0.1265 µM
  relative viability: 0.243
LCLC-97TM1; first compound 0.4 µM
  relative viability: 0.187
LCLC-97TM1; first compound 1.265 µM
  relative viability: 0.19
LCLC-97TM1; first compound 4 µM
  relative viability: 0.195
LOU-NH91; first compound 0.04 µM
  relative viability: 0.512
LOU-NH91; first compound 0.1265 µM
  relative viability: 0.541
LOU-NH91; first compound 0.4 µM
  relative viability: 0.461
LOU-NH91; first compound 1.265 µM
  relative viability: 0.503
LOU-NH91; first compound 4 µM
  relative viability: 0.517
LU99A; first compound 0.04 µM
  relative viability: 0.34
LU99A; first compound 0.1265 µM
  relative viability: 0.306
LU99A; first compound 0.4 µM
  relative viability: 0.375
LU99A; first compound 1.265 µM
  relative viability: 0.306
LU99A; first compound 4 µM
  relative viability: 0.312
NCI-H1395; first compound 0.04 µM
  relative viability: 0.814
NCI-H1395; first compound 0.1265 µM
  relative viability: 0.55
NCI-H1395; first compound 0.4 µM
  relative viability: 0.525
NCI-H1395; first compound 1.265 µM
  relative viability: 0.538
NCI-H1395; first compound 4 µM
  relative viability: 0.616
NCI-H1437; first compound 0.04 µM
  relative viability: 0.49
NCI-H1437; first compound 0.1265 µM
  relative viability: 0.456
NCI-H1437; first compound 0.4 µM
  relative viability: 0.518
NCI-H1437; first compound 1.265 µM
  relative viability: 0.432
NCI-H1437; first compound 4 µM
  relative viability: 0.432
NCI-H1666; first compound 0.04 µM
  relative viability: 0.538
NCI-H1666; first compound 0.1265 µM
  relative viability: 0.334
NCI-H1666; first compound 0.4 µM
  relative viability: 0.33
NCI-H1666; first compound 1.265 µM
  relative viability: 0.512
NCI-H1666; first compound 4 µM
  relative viability: 0.499
NCI-H1975; first compound 0.04 µM
  relative viability: 0.277
NCI-H1975; first compound 0.1265 µM
  relative viability: 0.322
NCI-H1975; first compound 0.4 µM
  relative viability: 0.32
NCI-H1975; first compound 1.265 µM
  relative viability: 0.258
NCI-H1975; first compound 4 µM
  relative viability: 0.287
NCI-H2085; first compound 0.04 µM
  relative viability: 0.424
NCI-H2085; first compound 0.1265 µM
  relative viability: 0.524
NCI-H2085; first compound 0.4 µM
  relative viability: 0.44
NCI-H2085; first compound 1.265 µM
  relative viability: 0.469
NCI-H2085; first compound 4 µM
  relative viability: 0.438
NCI-H2087; first compound 0.04 µM
  relative viability: 0.871
NCI-H2087; first compound 0.1265 µM
  relative viability: 0.752
NCI-H2087; first compound 0.4 µM
  relative viability: 1.15
NCI-H2087; first compound 1.265 µM
  relative viability: 0.826
NCI-H2087; first compound 4 µM
  relative viability: 0.931
NCI-H2126; first compound 0.04 µM
  relative viability: 0.488
NCI-H2126; first compound 0.1265 µM
  relative viability: 0.512
NCI-H2126; first compound 0.4 µM
  relative viability: 0.524
NCI-H2126; first compound 1.265 µM
  relative viability: 0.47
NCI-H2126; first compound 4 µM
  relative viability: 0.494
NCI-H358; first compound 0.04 µM
  relative viability: 0.378
NCI-H358; first compound 0.1265 µM
  relative viability: 0.361
NCI-H358; first compound 0.4 µM
  relative viability: 0.397
NCI-H358; first compound 1.265 µM
  relative viability: 0.311
NCI-H358; first compound 4 µM
  relative viability: 0.353
NCI-H647; first compound 0.04 µM
  relative viability: 0.387
NCI-H647; first compound 0.1265 µM
  relative viability: 0.42
NCI-H647; first compound 1.265 µM
  relative viability: 0.385
NCI-H647; first compound 4 µM
  relative viability: 0.4
PC-3 [JPC-3]; first compound 0.04 µM
  relative viability: 0.796
PC-3 [JPC-3]; first compound 0.1265 µM
  relative viability: 0.715
PC-3 [JPC-3]; first compound 0.4 µM
  relative viability: 0.645
PC-3 [JPC-3]; first compound 1.265 µM
  relative viability: 0.726
PC-3 [JPC-3]; first compound 4 µM
  relative viability: 0.752
SW 1573; first compound 0.04 µM
  relative viability: 0.596
SW 1573; first compound 0.1265 µM
  relative viability: 0.525
SW 1573; first compound 0.4 µM
  relative viability: 0.544
SW 1573; first compound 1.265 µM
  relative viability: 0.408
SW 1573; first compound 4 µM
  relative viability: 0.556
